Measured values as given in patent publication US11358989B2, “Apratyramide therapeutic agents and methods of treatment” (University of Florida Research Foundation, Incorporated, priority 2017, dated 2022).
“Also recorded” adds a separate entry of the source.

Tests used:
VEGF-A [1] = experiment: Measurement of human VEGF-A secretion from HaCaT cells (AlphaLISA); format: cell-based; conditions: 24 h
Protocol: (§1) Human keratinocyte HaCaT cells and human colon cancer HCT116 cells were cultured in Dulbecco's modified Eagle's medium (DMEM) supplemented with 10% fetal bovine serum at 37° C. humidified air and 5% CO2. Human normal colon (CCD-18Co) cells (ATCC) were cultured in Eagle's minimal essential medium (EMEM) supplemented with 10% fetal bovine serum at 37° C. humidified air and 5% CO2. Human Umbilical Vein Endothelial Cells (HUVEC, cat #CC-2519, Lonza) were cultured in EGM (Lonza cat #CC-3124) under the same condition.
HaCaT cells were seeded in a 96-well clear bottom plate. Cells were treated with various concentrations of apratyramide or solvent control (DMSO). After 24 h incubation, culture supernatants were collected for detection of VEGF-A using AlphaLISA kits (PerkinElmer, Waltham, Mass.) following the manufacturer's instruction. Briefly, acceptor bead and anti-VEGF-A antibody were incubated with the supernatants for 60 min, donor beads were added later and incubated for another 30 min. Signal was detected using Envision (PerkinElmer). Levels of VEGF-A (pg/mL) were calculated using a standard curve and then normalized based on cell numbers.

HCT116 cells = experiment: Cell viability assay (MTT), HCT116; format: cell-based, human; conditions: 48 h
Protocol: as §1
(§2) Cells were seeded in a 96-well clear bottom plate, and 24 h later cells were treated with various concentrations of the apratyramide or solvent control (DMSO). After 48 h of incubation, cell viability was detected using MTT according to the manufacturer's instructions (Promega, Madison, Wis.). Nonlinear regression analysis was carried out using GraphPad Prism software for IC50 value calculations.

HUVECs = experiment: In vitro angiogenesis assay (matrigel, HUVECs, HaCaT conditioned medium); format: cell-based, human; conditions: HUVECs 14 h, vs CM-DMSO
Protocol: HaCaT cells were seeded in 12-well plates in complete growth medium the day before treatment. The next day, the medium was replaced with fresh medium followed by the treatment of 1 or solvent control. After 24 h or incubation, the conditioned medium was collected for the in vitro angiogenesis assay.
HUVECs (Lonza) were used at passage 4 for this assay. In vitro Angiogenesis Assay Kit (Chemicon) was used according to the manufacturer's recommendation. Briefly, an ice-cold mixture of ECMatrix was transferred into a precooled 96-well plate. After the matrix solution had solidified (>1 h incubation at 37° C., 10,000 cells were mixed with the CM or EGM with or without the presence of VEGF-A protein, 100 ng/mL and plated into each well. After incubation at 37° C. for 14 h, images were captured for each well using a Nikon inverted microscope equipped with NIS-Elements software. Branch point counting was used as quantification method. Three random microscope view-fields were counted and the number of branch points was averaged for each well. Branch point for each group was calculated by averaging eight replicates from two independent experiments.

HaCaT cells [2] = experiment: Transcriptome profiling of HaCaT cells (Human Transcriptome Array 2.0, IPA); format: cell-based
Protocol: (§3) HaCaT cells were seeded in 6-well plates at a density of 2×10^5 per well and incubated further for 24 h in supplement-free medium prior to treatment. RNA was isolated at 3, 12 or 16 h post treatment using the RNeasy mini kit (QIAGEN, Valencia, Calif.). Total RNA was quantified using NanoDrop 2000. From 2 μg of total RNA, cDNA synthesis was done using SuperScript II Reverse Transcriptase (Invitrogen, Carlsbad, Calif.) and oligo (dT) (Invitrogen).
RNA was analyzed using a NanoDrop spectrophotometer and Agilent 2100 Bioanalyzer to determine the RNA concentration and quality, respectively. RNA samples were processed using the GeneChip WT PLUS Reagent Kit (Affymetrix, Santa Clara, Calif.) according to the manufacturer's instruction. In brief, 250 ng of RNA were used for cDNA synthesis by reverse transcription, and the cDNA was utilized as a template for the biotin-labeled RNA prepared by in vitro transcription reaction. The labeled RNA was further purified, fragmented, and hybridized with rotation at 45° C. for 16 h to the GeneChip™ Human Transcriptome Array 2.0. The arrays were washed and stained using the GeneChip Hybridization Wash and Stain kit on an Affymetrix Fluidics Station 450. The chips were scanned using a GeneChip 7G Scanner. […]

IRE1 = IRE1 transcript (microarray) and protein (immunoblot) in HaCaT cells; format: cell-based, human
Protocol: (§4) HaCaT cells were seeded in 6-well clear bottom plate the day before treatment. The next day, cells were treated with 1 or solvent control (DMSO). 24 h later, whole cell lysates were collected using PhosphoSafe buffer (EMD Chemicals, Inc, Gibbstown, N.J.). Protein concentrations were measured with the BCA Protein Assay kit (Thermo Fisher Scientific, Rockford, Ill.). Lysates containing equal amounts of protein were separated by SDS polyacrylamide gel electrophoresis (4-12%), transferred to polyvinylidene difluoride membranes, probed with primary and secondary antibodies, and detected with the SuperSignal West Femto Maximum Sensitivity Substrate (Thermo Fisher Scientific). BIP, IRE1, β-actin and secondary anti-mouse and rabbit antibodies were from Cell Signaling Technology, Inc (Danvers, Mass.). ATF4 and ORP150 antibodies were obtained from Santa Cruz (Calif.).
(§5) RNA was analyzed using a NanoDrop spectrophotometer and Agilent 2100 Bioanalyzer to determine the RNA concentration and quality, respectively. RNA samples were processed using the GeneChip WT PLUS Reagent Kit (Affymetrix, Santa Clara, Calif.) according to the manufacturer's instruction. In brief, 250 ng of RNA were used for cDNA synthesis by reverse transcription, and the cDNA was utilized as a template for the biotin-labeled RNA prepared by in vitro transcription reaction. […]

ORP150 = ORP150 transcript (microarray) and protein (immunoblot) in HaCaT cells; format: cell-based, human
Protocol: as §4, §5

VEGF-A [3] = experiment: VEGF-A transcript level in HaCaT cells (RT-qPCR); format: cell-based, human; conditions: for VEGF-A mRNA level induction: 30 μM; for increase of VEGF-A transcript levels: 16 h
Protocol: as §1
as §3, with “RNA was isolated at 3, 12 or 16 h post treatment using the RNeasy mini kit (QIAGEN, Valencia, Calif.).” left out
(§6) qPCR after reverse transcription (RT-qPCR) was performed on a 25 μL reaction solution containing a 0.3 μL aliquot of cDNA, 12.5 μL of TaqMan gene expression assay mix, 1.25 μL of probes, and 11 μL RNase-free water. qPCR was carried out on an ABI 7300 sequence detection system using the thermocycler program: 2 min at 50° C., 10 min at 95° C., and 15 s at 95° C. (40 cycles) and 1 min at 60° C. Each experiment was performed in triplicate. VEGF-A (Hs00900055_m1), PDGFB (Hs00266645_m1) and bFGF (Hs00966522_m1) were used as target genes, while GAPDH (Hs02758991_g1) was used as endogenous control. Graphs and data analysis were performed using the Prism software and analyzed using unpaired t test.

ATF4 = ATF4 transcript (microarray) and protein (immunoblot) in HaCaT cells; format: cell-based, human
Protocol: as §4, §5

bFGF = bFGF transcript level in HaCaT cells (RT-qPCR); format: cell-based, human; conditions: 16 h
Protocol: as §3, §6

PDGFB = PDGFB transcript level in HaCaT cells (RT-qPCR); format: cell-based, human; conditions: 16 h
Protocol: as §3, §6

VEGF-A [4] = experiment: VEGF-A transcript level in HCT116 cells (RT-qPCR); format: cell-based, human; conditions: 16 h
Protocol: as §1, §6

CCD-18Co cells = experiment: Cell viability assay (MTT), CCD-18Co; format: cell-based, human; conditions: 48 h
Protocol: as §1, §2

HaCaT cells [5] = experiment: Cell viability assay (MTT), HaCaT; format: cell-based, human; conditions: 24 h
Protocol: as §1
Cells were seeded in a 96-well clear bottom plate, and 24 h later cells were treated with various concentrations of the apratyramide or solvent control (DMSO). […] Nonlinear regression analysis was carried out using GraphPad Prism software for IC50 value calculations.

VEGF-A [6] = experiment: VEGF-A mRNA in ablated rabbit corneas, ex vivo organ culture; conditions: ablated rabbit corneas ex vivo, 25, 50 or 100 μM, 18 h
Protocol: The central 6 mm diameter area of corneas of twelve fresh rabbit globes (Pelfreeze) was ablated to a total depth of 155 microns using a Nidek excimer laser in phototherapeutic keratectomy mode. Ablated corneas were then surgically dissected from the rabbit globes using sterile scalpel and forceps, grasping only the scleral rims and not the clear cornea. The corneas were cultured in DMEM/F-12 1:1 (Thermo Fisher) containing 40 mM HEPES, 10% FBS, 0.01% dextran 40 (Tokyo Chemical Industry, Co., Ltd.) and 0.025% chondroitin sulfate (Chem-Impex International, Inc.) in 6-well plates. Twelve corneas were randomly distributed into four groups (three corneas in each group): DMSO, 25 μM, 50 μM or 100 μM apratyramide. […]
The central scar-like tissue from each cornea was collected using an 8 mm punch biopsy. […] The purified cDNA was then quantified using nanodrop and used to generate a standard curve. Serial 10-fold dilutions of the quantified cDNA amplicon were subjected to RT-qPCR using SYBR Select Master Mix (Applied Biosystems). […] The mass-normalized Ct values for the apratyramide treatment groups and DMSO control group (n=3 biological replicates per group) were analyzed by a one-way ANOVA (α=0.05, Microsoft Excel 2010, Analysis Tool Pack) followed by Tukey's HSD post hoc test manually calculated in Excel 2010 (FIG. 8).

SMILES: CC[C@H](C)[C@@H](OC(=O)[C@H](Cc1ccc(OC)cc1)N(C)C)C(=O)N[C@H](C(=O)N(C)[C@@H](Cc1ccc(O)cc1)C(=O)N(C)[C@@H](Cc1ccc(O)cc1)C(=O)OC)C(C)C [Compound 1, Apratyramide]
- increase of VEGF-A secretion (VEGF-A [1]; 31.6 μM): 1.3 fold
- increase of VEGF-A secretion (VEGF-A [1]; 50 μM): 1.5 fold
- cytotoxicity (antiproliferative effect) (HCT116 cells): minimal cytotoxicity
- angiogenesis (tube-like structure formation) with conditioned medium (HUVECs; HaCaT culture treated with 30 μM for 24 h): rescued
- angiogenesis (tube-like structure formation) with conditioned medium (HUVECs; HaCaT culture treated with 50 μM for 24 h): rescued
- VEGF-A in microarray (HaCaT cells [2]; 30 μM, 12 h): one of the most up-regulated genes
- microRNAs in microarray (HaCaT cells [2]; 12 h treatment): down-regulation of several microRNAs
- IRE1 transcript and protein levels (IRE1): up-regulated
- ORP150 transcript and protein levels (ORP150): up-regulated
- VEGF-A mRNA level induction (VEGF-A [3]; 4 h): 1.7 fold
- VEGF-A mRNA level induction (VEGF-A [3]; 12 h): greater induction effect
- increase of VEGF-A transcript levels (VEGF-A [3]; 31.6 μM): 5 fold
- increase of VEGF-A transcript levels (VEGF-A [3]; 50 μM): 7 fold
- ATF4 transcript and protein levels (ATF4): up-regulated; also recorded: activated
- bFGF transcript level (bFGF): stimulated
- PDGFB transcript level (PDGFB): stimulated
- VEGF-A transcript level (VEGF-A [4]): up-regulated
- VEGF-A transcript levels (VEGF-A [4]; fifty micro-molar): doubled
- effects on cell viability (CCD-18Co cells): negligible effects
- cytotoxicity (HaCaT cells [5]; 31.6 μM): without causing cytotoxicity
- cell viability (HaCaT cells [5]; 50 μM): Around ninety-percent
- VEGF-A mRNA in the cornea (VEGF-A [6]): dose-dependent increase
